Consider 11 compounds from ChEMBL document CHEMBL1201862, “PubChem BioAssay data set” (2004).

Structures are written as SMILES.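 Compound exposure: 48 hours, 5 concentrations, 96-well plates. Abbreviation: GI50, concentration required for 50% inhibition of growth.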 Activity calls are given as the source filed them. Rule as the data show it: active = GI50 up to about 1.1 µM and inactive = higher. A value given as a limit tells only on which side of the number the result lay.

Test systems include EKVX; NCI-H460; NCI-H522; A549; M14; OVCAR-5; 786-0; SNB-75; UACC-62; OVCAR-3; HT-29; K562; NCI-H226; SNB-19; ACHN; U-251; SF-268; MDA-MB-435; NCI/ADR-RES.
Holding throughout (experiment): NCI anticancer screen, dose series, 48 h

For `c1ccc(CCCNc2nnnc3ccccc23)cc1`, the GI50 in the assay with EKVX was 70.1 µM (inactive); in the assay on NCI-H460, > 100 µM (inactive); in the assay with NCI-H522, 24.1 µM (inactive); in the assay with A549 it was 63 µM (inactive); in the assay with M14 it was > 100 µM (inactive); in the assay on OVCAR-5, > 100 µM (inactive). In addition, the GI50 was > 100 µM (inactive) with 786-0; > 100 µM (inactive) in the assay on SNB-75; 36 µM (inactive) with UACC-62; > 100 µM (inactive) in the assay with OVCAR-3; > 100 µM (inactive) in the assay with HT-29; 47.5 µM (inactive) with K562. The GI50 in the assay with NCI-H226 was > 100 µM (inactive); in the assay on SNB-19, > 100 µM (inactive); in the assay on ACHN, 85.1 µM (inactive); with U-251, > 100 µM (inactive); in the assay on SF-268, > 100 µM (inactive); in the assay on MDA-MB-435, 55.1 µM (inactive). For the same compound, the GI50 in the assay on NCI/ADR-RES is 39.4 µM (inactive).

Turning to `COc1ccc(C(=O)NCCN(C)C)c2nc3ccccc3cc12`, the GI50 was 1.66 µM (inactive) in the assay on EKVX; 0.0255 µM (active) in the assay with NCI-H460; 0.817 µM (active) in the assay on NCI-H522; 0.0962 µM (active) with A549; 1.33 µM (inactive) in the assay with M14; 0.163 µM (active) in the assay with OVCAR-5. The GI50 in the assay on 786-0 was 0.305 µM (active); with SNB-75 it was 4.68 µM (inactive); in the assay with UACC-62, 0.729 µM (active); in the assay with OVCAR-3, 2 µM (inactive); with HT-29 it was 0.596 µM (active); in the assay with K562, 1.44 µM (inactive). Besides, the GI50 in the assay on NCI-H226 was 0.785 µM (active); in the assay on SNB-19, 0.741 µM (active); in the assay with ACHN it was 0.21 µM (active); in the assay on U-251, 0.64 µM (active); in the assay on SF-268, 1.58 µM (inactive); in the assay with MDA-MB-435, 1.85 µM (inactive). The GI50 with NCI/ADR-RES is 1.67 µM (inactive).

Turning to `COc1ccc(/C(=N\Nc2ccccn2)c2ccccn2)cc1`, the GI50 is < 0.01 µM (active) in the assay on EKVX; < 0.0287 µM (active) in the assay with NCI-H460; < 0.01 µM (active) in the assay with NCI-H522; 0.149 µM (active) in the assay with A549; < 0.01 µM (active) with M14; 2.54 µM (inactive) with OVCAR-5. In addition, the GI50 in the assay on 786-0 is < 0.0162 µM (active); in the assay with SNB-75, 0.414 µM (active); with UACC-62 it was 0.104 µM (active); in the assay on OVCAR-3 it was < 0.01 µM (active); in the assay with HT-29, < 0.01 µM (active); in the assay with K562, < 0.0107 µM (active). For the same compound, the GI50 is < 0.01 µM (active) in the assay with NCI-H226; 0.544 µM (active) in the assay on SNB-19; < 0.01 µM (active) in the assay on ACHN; < 0.0178 µM (active) with U-251; 0.0311 µM (active) in the assay on SF-268; 0.156 µM (active) in the assay on MDA-MB-435. Further, the GI50 with NCI/ADR-RES is < 0.01 µM (active).

On to `CCCCCCCCCc1cc(-c2ccc(C=O)s2)sc1-c1ccc(C=O)s1`, for which the GI50 in the assay on EKVX is 70.6 µM (inactive); in the assay on NCI-H460 it was 25.1 µM (inactive); with NCI-H522 it was 15.9 µM (inactive); with A549 it was 53.1 µM (inactive); in the assay on M14, 8.47 µM (inactive); in the assay with OVCAR-5 it was 29.5 µM (inactive). For the same compound, the GI50 in the assay on 786-0 was 28.7 µM (inactive); with SNB-75 it was 27 µM (inactive); in the assay with UACC-62, 7.26 µM (inactive); with OVCAR-3, 16.7 µM (inactive); with HT-29, 39.5 µM (inactive); in the assay with K562, 3.56 µM (inactive). Further, the GI50 in the assay with NCI-H226 was 3.04 µM (inactive); in the assay with SNB-19 it was 22.6 µM (inactive); with ACHN, 30.7 µM (inactive); in the assay on U-251 it was 10 µM (inactive); in the assay with SF-268, 34.8 µM (inactive); in the assay on MDA-MB-435 it was 22.6 µM (inactive). The GI50 with NCI/ADR-RES is 19.6 µM (inactive).

As for `O=c1c(F)cn(Cc2c(Cl)cccc2Cl)c(=O)n1Cc1c(Cl)cccc1Cl`, the GI50 in the assay with EKVX was 21.4 µM (inactive); with NCI-H460, > 31.6 µM (inactive); with NCI-H522 it was 16 µM (inactive); with A549, > 31.6 µM (inactive); with M14 it was > 31.6 µM (inactive); with OVCAR-5 it was > 31.6 µM (inactive). For the same compound, the GI50 in the assay with 786-0 is > 31.6 µM (inactive); in the assay on SNB-75, 16.5 µM (inactive); in the assay with UACC-62 it was 26 µM (inactive); in the assay on OVCAR-3, > 31.6 µM (inactive); with HT-29 it was 18.3 µM (inactive); in the assay on K562, 26.9 µM (inactive). The GI50 was > 71.6 µM (inactive) in the assay on NCI-H226; > 100 µM (inactive) with SNB-19; > 31.6 µM (inactive) with ACHN; > 31.6 µM (inactive) in the assay with U-251; > 31.6 µM (inactive) in the assay with SF-268; 29.6 µM (inactive) with MDA-MB-435. Further, the GI50 in the assay with NCI/ADR-RES was > 31.6 µM (inactive).

On to `C1CSC2=C(S1)SC1=C(S2)SC(=C2SC3=C(SC4=C(SCCS4)S3)S2)S1`, for which the GI50 in the assay with EKVX, in the assay with NCI-H460, in the assay on NCI-H522, with A549, with M14 and in the assay with OVCAR-5 was > 100 µM (inactive) throughout. In addition, the GI50 in the assay on 786-0 is > 100 µM (inactive); in the assay with SNB-75 it was 37.7 µM (inactive); in the assay on UACC-62, > 100 µM (inactive); in the assay with OVCAR-3, > 100 µM (inactive); in the assay with HT-29 it was > 100 µM (inactive); in the assay on K562, > 100 µM (inactive). The GI50 in the assay on NCI-H226, in the assay with SNB-19, in the assay on ACHN, with U-251, in the assay with SF-268 and in the assay with MDA-MB-435 was > 100 µM (inactive) each time. The GI50 in the assay on NCI/ADR-RES was > 100 µM (inactive).

In the case of `COc1ccc(C(O)c2ccccn2)cc1` (centres undefined), the GI50 in the assay on EKVX, in the assay with NCI-H460, in the assay with NCI-H522, with A549, with M14 and in the assay with OVCAR-5 was > 100 µM (inactive) each time. The GI50 in the assay with 786-0, in the assay with SNB-75, with UACC-62, with OVCAR-3, in the assay with HT-29 and with K562 was > 100 µM (inactive) each time. Also, the GI50 in the assay with NCI-H226, with SNB-19, with ACHN, in the assay on U-251, in the assay with SF-268 and in the assay on MDA-MB-435 was > 100 µM (inactive) throughout. Also, the GI50 in the assay on NCI/ADR-RES is > 100 µM (inactive).

Consider `O=C(CSCC(=O)N/N=C\c1cccc(Br)c1)N/N=C\c1cccc(Br)c1`, for which the GI50 is 27.1 µM (inactive) in the assay on EKVX; 25.2 µM (inactive) in the assay on NCI-H460; 17 µM (inactive) in the assay with NCI-H522; 14.1 µM (inactive) in the assay on A549; 20 µM (inactive) in the assay on M14; 18.6 µM (inactive) with OVCAR-5. Also, the GI50 in the assay with 786-0 is 19.1 µM (inactive); with SNB-75 it was 18.1 µM (inactive); with UACC-62, 14.7 µM (inactive); in the assay on OVCAR-3 it was 13.4 µM (inactive); in the assay with HT-29, 23.1 µM (inactive); with K562, 18.2 µM (inactive). Moreover, the GI50 with NCI-H226 is 15.7 µM (inactive); in the assay with SNB-19 it was 46.5 µM (inactive); in the assay with ACHN, 13.6 µM (inactive); in the assay with U-251, 15.1 µM (inactive); in the assay on SF-268 it was 14.1 µM (inactive); in the assay on MDA-MB-435, 18.5 µM (inactive). Also, the GI50 with NCI/ADR-RES is 15.9 µM (inactive).

For `COc1ccc2oc(S(=O)(=O)N3CC(CCl)c4ccc([N+](=O)[O-])cc43)cc2c1` (centres undefined), the GI50 is 0.173 µM (active) in the assay with EKVX; 0.102 µM (active) in the assay with NCI-H460; 0.0292 µM (active) in the assay with NCI-H522; 0.274 µM (active) in the assay with A549; 0.122 µM (active) in the assay with M14; 0.832 µM (active) in the assay on OVCAR-5. For the same compound, the GI50 in the assay on 786-0 is 0.0959 µM (active); in the assay on SNB-75, 0.0933 µM (active); in the assay with UACC-62, 0.055 µM (active); in the assay on OVCAR-3, 0.108 µM (active); in the assay with HT-29, 0.146 µM (active); with K562 it was 0.0366 µM (active). Besides, the GI50 is 0.127 µM (active) in the assay with NCI-H226; 0.233 µM (active) in the assay with SNB-19; 0.179 µM (active) in the assay on ACHN; 0.0955 µM (active) in the assay on U-251; 0.299 µM (active) in the assay on SF-268; 0.0177 µM (active) in the assay with MDA-MB-435. In the assay with NCI/ADR-RES, the GI50 is 0.0596 µM (active).

As for `COc1cc([N+](=O)[O-])c(S(=O)(=O)O)cc1-n1nc(C(=O)Nc2ccccc2)n[n+]1-c1cc(S(=O)(=O)[O-])c([N+](=O)[O-])cc1OC`, the GI50 in the assay on EKVX, with NCI-H460, in the assay on NCI-H522, in the assay with A549, with M14 and in the assay on OVCAR-5 was > 100 µM (inactive) each time. In addition, the GI50 in the assay with 786-0 was > 100 µM (inactive); in the assay on SNB-75, > 100 µM (inactive); in the assay with UACC-62 it was 42.2 µM (inactive); in the assay on OVCAR-3 it was > 100 µM (inactive); in the assay on HT-29 it was 56 µM (inactive); in the assay with K562, 88.7 µM (inactive). The GI50 was > 100 µM (inactive) in the assay with NCI-H226; > 100 µM (inactive) in the assay on SNB-19; 93.8 µM (inactive) in the assay with ACHN; 97.7 µM (inactive) with U-251; > 100 µM (inactive) in the assay on SF-268; 85.5 µM (inactive) in the assay with MDA-MB-435. Moreover, in the assay on NCI/ADR-RES, the GI50 is > 100 µM (inactive).

`CNc1cccnc1/C=N/N=C(/N)S`: the GI50 in the assay on EKVX was 4.39 µM (inactive); in the assay on NCI-H460, 2.46 µM (inactive); in the assay with NCI-H522, 2.47 µM (inactive); in the assay on A549 it was 2.61 µM (inactive); in the assay with M14, 1.37 µM (inactive); with OVCAR-5, 3.89 µM (inactive). Besides, the GI50 in the assay with 786-0 is 0.38 µM (active); with SNB-75, 0.863 µM (active); with UACC-62, 0.379 µM (active); in the assay with OVCAR-3, 2.17 µM (inactive); with HT-29, 2.45 µM (inactive); in the assay on K562, > 4.76 µM (inactive). Besides, the GI50 in the assay with NCI-H226 was 2.75 µM (inactive); in the assay on SNB-19, > 10 µM (inactive); in the assay on ACHN, 0.332 µM (active); in the assay on U-251 it was 1.87 µM (inactive); in the assay with SF-268, 0.612 µM (active); in the assay with MDA-MB-435, 2.41 µM (inactive). Besides, the GI50 in the assay with NCI/ADR-RES was 3.01 µM (inactive).
